The values below come from paper PMC6555645 (Angewandte Chemie (International ed. in English), 2019).

The target of one test is T1, Tar14 (Saccharomonospora piscinae, UniProt W5VG40).
T1 sequence (W5VG40 1-534): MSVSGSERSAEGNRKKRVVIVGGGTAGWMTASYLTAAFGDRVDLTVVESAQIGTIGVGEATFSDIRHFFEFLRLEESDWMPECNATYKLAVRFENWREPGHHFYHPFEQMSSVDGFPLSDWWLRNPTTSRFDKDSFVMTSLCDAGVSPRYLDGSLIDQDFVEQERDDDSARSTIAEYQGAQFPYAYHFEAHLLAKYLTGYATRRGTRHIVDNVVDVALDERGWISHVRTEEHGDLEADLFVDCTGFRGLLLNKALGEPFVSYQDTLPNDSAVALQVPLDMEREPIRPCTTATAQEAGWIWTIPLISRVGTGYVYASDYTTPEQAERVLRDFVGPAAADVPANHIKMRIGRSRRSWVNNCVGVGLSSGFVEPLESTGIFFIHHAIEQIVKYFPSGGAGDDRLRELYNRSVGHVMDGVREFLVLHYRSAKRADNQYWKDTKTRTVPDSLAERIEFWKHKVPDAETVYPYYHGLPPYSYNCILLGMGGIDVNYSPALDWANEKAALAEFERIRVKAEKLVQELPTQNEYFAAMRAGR
Kind of test: in vitro chlorination assay. Conditions: with flavin and a flavin reductase system; chloride. The format is biochemical.

A further test has as its target T2, Tar13 (Saccharomonospora piscinae, UniProt W5VMS0).
T2 sequence (W5VMS0 1-236): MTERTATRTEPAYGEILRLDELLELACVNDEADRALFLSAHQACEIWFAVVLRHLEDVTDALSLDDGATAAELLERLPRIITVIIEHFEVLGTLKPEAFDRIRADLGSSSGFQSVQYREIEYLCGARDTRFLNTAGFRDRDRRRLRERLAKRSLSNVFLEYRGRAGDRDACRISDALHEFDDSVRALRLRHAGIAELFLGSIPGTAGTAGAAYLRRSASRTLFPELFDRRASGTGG
Kind of test: in vitro dioxygenase assay. Conditions: heme-dependent TDO; O2. The format is biochemical.

Turning to `N[C@@H](Cc1c[nH]c2ccccc12)C(=O)O` [compound 4, L-Trp], the Km on Tar14 was determined as 12 µM.
`N[C@@H](Cc1c[nH]c2cc(Cl)ccc12)C(=O)O` [compound 7, L-6-Cl-Trp]: the Km at Tar13 came to 112 µM.

A word on the Km: it is the concentration of substrate that gives half-maximal velocity.
